According to patent US20100249165A1, “PDZ DOMAIN MODULATORS” (University of Copenhagen, priority 2007, published 2010):
“Also recorded” adds a separate entry of the source. Peptide text beside a SMILES is read from it.

Tests used:
PICK1 = target: T1, PICK1 (Rattus norvegicus, UniProt Q9EP80); test: Fluorescence polarization saturation binding of fluorescently labeled peptides to PICK1
T1 construct: The entire coding region of rat PICK1 (residues 2-416); GST (N, cleaved yes); made in house; host or cells: E. coli BL21(DE3) pLysS
T1 sequence (Q9EP80 2-416): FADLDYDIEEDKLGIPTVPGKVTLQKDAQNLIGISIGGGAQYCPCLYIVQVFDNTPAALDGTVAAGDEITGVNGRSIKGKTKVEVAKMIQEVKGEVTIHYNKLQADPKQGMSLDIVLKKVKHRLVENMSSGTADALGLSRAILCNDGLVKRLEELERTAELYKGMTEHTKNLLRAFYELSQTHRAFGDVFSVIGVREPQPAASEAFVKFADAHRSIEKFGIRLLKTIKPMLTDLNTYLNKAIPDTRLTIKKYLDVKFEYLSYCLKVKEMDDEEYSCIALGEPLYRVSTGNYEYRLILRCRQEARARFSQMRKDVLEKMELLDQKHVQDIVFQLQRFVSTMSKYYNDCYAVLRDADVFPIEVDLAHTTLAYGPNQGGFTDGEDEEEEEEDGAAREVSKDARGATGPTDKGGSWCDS
Excerpt: The entire coding region of rat PICK1 (residues 2-416) is amplified from a pCINEO vector by PCR using pfu polymerase according to the instructions by the manufacturer (Stratagene, La Jolla, Calif.). The primers used introduce a 5′ restriction site for MunI and 3′ restriction site for AvrII. The PCR fragment is cleaved with MunI and AvrII and cloned into the reading frame of the pET41a vector (Novagen, Madison, Wis.) producing an N-terminally glutathione-S-transferase (GST) fusion of PICK1. The GST-PICK1 fusion was expressed in E. coli BL21(DE3) pLysS (Novagen). The transformed bacteria are grown to OD600 0.6 and expression of the fusion protein is induced with isopropyl-β-D1-thiogalactopyranoside (105 μM) overnight at 30° C. The bacteria are lysed by freezing and thawing in TBS buffer containing [50 mM Tris pH 7.4, 125 mM NaCl, 1% TX-100, 20 μg/mL DNAse I, 1 mM DTT (Sigma)]. The lysate is cleared by centrifugation (rotor SS-34, 18000 rpm, 48000×g, 30 min). The supernatant is incubated with glutathione-sepharose beads (Amersham Biosciences) under slow rotation for 90 minutes at 4° C. The beads are pelleted at 3500 g for 5 minutes and washed in TBS buffer containing [50 mM Tris pH 7.4, 125 mM NaCl, 0.1% TX-100, 1 mM DTT] by three batch washes. The protein is separated from the GST domain by cleavage with thrombin protease (Novagen) in the above wash buffer at 4° C. overnight. […]

PDZ domain of PICK1 = target: T2, PDZ domain of PICK1 (Rattus norvegicus, UniProt Q9EP80); test: Fluorescence polarization competition binding to PICK1 (Oregon Green-labeled DAT peptide tracer); conditions: for Ki: competition with DAT13 OrG tracer 40 nM, fixed subsaturating PICK1, 15 min incubation, means of three independent experiments, read-out: Ki (μM) [SE interval]; for potency in displacing the fluorescently tagged tracer (in words): unlabeled peptide titrated against fixed PICK1 and labeled DAT peptide
T2 construct: The entire coding region of rat PICK1 (residues 2-416); GST (N, cleaved yes); made in house; host or cells: E. coli BL21(DE3) pLysS
T2 sequence (Q9EP80 2-416): as above
Excerpt: The entire coding region of rat PICK1 (residues 2-416) is amplified from a pCINEO vector by PCR using pfu polymerase according to the instructions by the manufacturer (Stratagene, La Jolla, Calif.). The primers used introduce a 5′ restriction site for MunI and 3′ restriction site for AvrII. The PCR fragment is cleaved with MunI and AvrII and cloned into the reading frame of the pET41a vector (Novagen, Madison, Wis.) producing an N-terminally glutathione-S-transferase (GST) fusion of PICK1. The GST-PICK1 fusion was expressed in E. coli BL21(DE3) pLysS (Novagen). The transformed bacteria are grown to OD600 0.6 and expression of the fusion protein is induced with isopropyl-β-D1-thiogalactopyranoside (105 μM) overnight at 30° C. The bacteria are lysed by freezing and thawing in TBS buffer containing [50 mM Tris pH 7.4, 125 mM NaCl, 1% TX-100, 20 μg/mL DNAse I, 1 mM DTT (Sigma)]. The lysate is cleared by centrifugation (rotor SS-34, 18000 rpm, 48000×g, 30 min). The supernatant is incubated with glutathione-sepharose beads (Amersham Biosciences) under slow rotation for 90 minutes at 4° C. The beads are pelleted at 3500 g for 5 minutes and washed in TBS buffer containing [50 mM Tris pH 7.4, 125 mM NaCl, 0.1% TX-100, 1 mM DTT] by three batch washes. The protein is separated from the GST domain by cleavage with thrombin protease (Novagen) in the above wash buffer at 4° C. overnight. Samples of 10 μl are taken from the protein solution for determination of protein concentration and for analysis by SDS-PAGE. Protein determinations are performed using the BCA Protein Assay Reagent kit (Pierce Biotechnology, Inc, Rockford, Ill.) according to manufactures protocol using bovine serum albumin as standard. Gels are stained with GelCode Blue Stain Reagent (Pierce Biotechnology) in order to inspect size, integrity and purity of the protein (Madsen et al., JBC, 280, 20539-48, 2005).
This assay is used to screen for compounds binding to the PDZ binding groove in PICK1. The assay is based on the predicted decrease in rotational diffusion of a fluorescently labeled peptide upon its binding to a larger protein. The decrease in rotational diffusion upon binding of a fluorescent labeled peptide to PICK1 can be detected as an increase in fluorescence polarization (FP). Binding of a small-molecule compound to the PDZ binding groove can be detected by its ability to displace the fluorescently labeled peptide resulting in a decreased in FP (Madsen et al., JBC, 280, 20539-48, 2005).
To perform the assay, compounds are loaded (10 μl of each) in microtiter-plates (88 compounds per 96 well plate) (Corning) at a concentration of 1 mM in DMSO. To each well is added 90 μl buffer containing Tris base (50 mM), NaCl (125 mM), TX-100 (0.1%), PICK1 (0.45 μM) and fluorescently labeled peptide. This peptide corresponds to the C-terminus of a protein that binds to the PICK1 PDZ domain. For example, the peptide can correspond to the last 13 C-terminal residues of the DAT, of protein kinase Cα or of the GluR2 subunit of the AMPA reaceptor. The peptide can be labeled with any fluorophore. For example it can be labeled with a sulfhydryl-reactive derivative of Oregon Green via a cysteine introduced in the peptide. The peptide is used in a concentration of about 40 nM. The final concentration of the compounds in the initial screen is 100 μM. After approximately 15 min of incubation at […] the plates are analyzed in a Chameleon plate-reader (HIDEX) in the FP mode using a 488 nm excitation filter and a 535 nm long pass emission filter. Each measurement is an average of 100 flashes and is carried out four times. FP is calculated according to the equation FP=(IV−g*IH)/(IV+g*IH). As negative and positive controls, respectively, pure DMSO and DMSO with unlabeled DAT peptide (20 μM final conc.) are measured in parallel. All compounds are tested twice on separate plates.

[1] = target: T3, interaction between PICK1 and a DAT-peptide fused to GST (Rattus norvegicus, UniProt Q9EP80); test: GST-DAT pull-down assay of PICK1; format: binding; conditions: PICK1 band on SDS-PAGE compared with control pull-down
T3 construct: The entire coding region of rat PICK1 (residues 2-416); GST (N, cleaved yes); made in house; host or cells: E. coli BL21(DE3) pLysS
T3 sequence (Q9EP80 2-416): as above
Description: To verify binding of active compounds identified in the FP screen, a biochemical pulldown assay can be employed.
A fusion between GST and the 24 C-terminal amino acids of the dopamine transporter (GST DAT C24) is expressed in BL21(DE3)pLysS (Novagen) using the pET41a vector (Novagen, Madison, Wis.) and purified as described for PICK1 but without digestion with thrombin.
5 μl dry volume of glutathione-coated sepharose beads (Pharmacia) with bound GST alone or GST DAT C24 are suspended in 200 μl TBS buffer containing as follows [50 mM Tris pH 7.4, 125 mM NaCl, 0.1% TX-100, 1 mM DTT (Sigma) and PICK1 0.5 μM]. The compounds to be tested are added in DMSO to a final concentration of 200 μM (2% DMSO final concentrtaion). The last 11 amino acids of the C-terminus of the GLT1b glutamate transporter (60 μM final) and pure DMSO (2%) can be used as a positive and negative control, respectively.
The samples are incubated at 4° C. under slow rotation for 30 min. The beads are centrifuged at 4000 g for 5 min and subsequently washed in TBS buffer and recentrifuged. The beads containing bound protein are eluted in loading buffer and analyzed by 12% SDS-PAGE and proteins are stained with Gelcode blue stain reagent (Pierce). Active compounds i.e. a blocked pull-down are recognized by a reduced PICK1 band on the SDS-PAGE gel compared to the control pull-down. […]

PICK1 GluR2 interaction = target: T4, PICK1 GluR2 interaction (Rattus norvegicus, UniProt Q9EP80); test: FRET between eCFP-GluR2 C29 and eYFP-PICK1 in COS7 cells; format: cell-based; conditions: compound added 20 min prior to image acquisition
T4 construct: expressed in transfected cells; host or cells: COS7 cells, transient transfection
T4 sequence (Q9EP80 whole entry): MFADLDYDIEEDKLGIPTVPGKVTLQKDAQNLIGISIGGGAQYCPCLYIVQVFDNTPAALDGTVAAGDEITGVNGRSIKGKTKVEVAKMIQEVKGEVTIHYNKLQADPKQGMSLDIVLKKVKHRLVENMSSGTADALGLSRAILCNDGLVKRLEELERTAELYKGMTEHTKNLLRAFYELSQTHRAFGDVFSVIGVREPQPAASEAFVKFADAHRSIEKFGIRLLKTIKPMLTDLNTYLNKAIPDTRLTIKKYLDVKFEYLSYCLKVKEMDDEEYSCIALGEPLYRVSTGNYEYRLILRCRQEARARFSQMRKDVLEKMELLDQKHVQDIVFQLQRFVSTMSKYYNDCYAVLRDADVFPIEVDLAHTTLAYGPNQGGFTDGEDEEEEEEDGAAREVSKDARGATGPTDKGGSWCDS
Description: To determine whether a compound is able to block binding of a PD ligand, such as the c-terminus of the AMPA receptor GluR2 subunit, to the PICK1 PDZ domain in a cellular system a Fluorescent Resonance Energy Transfer (FRET) assay can be employed. PICK1 is fused to eYFP (eYFP-PICK1) and the C-terminal 29 residues of the AMPA receptor subunit GluR2 is fused to eCFP (eCFP-GluR2 C29). As a control for specificity of the FRET signal an alanine is added to the C-terminal 29 residues of GluR2 (eCFP-GluR2 C29+A) to disrupt the PDZ interaction. […]
Fluorescence resonance energy transfer (FRET; see Schmid and Sitte, 2003) is measured with an epi-fluorescence microscope (Carl Zeiss TM210, Germany) using the “three-filter method” according to Xia and Liu (2001). […]
Media are replaced by Krebs-HBS buffer (10 mM HEPES/120 mM NaCl/3 mM KCl/2 mM CaCl2/2 mM MgCl2), and images are taken using a 63× oil objective and a LUDL filter wheel that allows for rapid exchange of filters (less than 100 ms). The system is equipped with the following fluorescence filters: CFP filter (ICFP; exc.: 436 nm, dichr.: 455 nm, em.: 480 nm), YFP filter (IYFP; exc.: 500 nm, dichr.: 515 nm, em.: 535 nm) and FRET filter (IFRET: excitation=436 nm, dichroic mirror=455 nm, emission=535 nm). […] Background fluorescence is subtracted from all images and fluorescence intensity was measured in cytosolic regions in all images. […]

With “PKCα peptide: peptide corresponding to the 13 C-terminal residues of PKCα, type I PDZ binding sequence -QSAV (NPQFVHPILQSAV; UniProt P17252 660-672, looked up, fragment)” the “fold lower apparent affinity than the DAT peptide” value (PICK1) was ~10 fold.

Compound CCOc1cc(Cl)c(Cl)c(C=O)c1O [d, 2,3-Dichloro-5-ethoxy-6-hydroxy-benzaldehyde] has a Ki (PDZ domain of PICK1) of 67 µM.

With CCOC(=O)NC(=O)/C(C#N)=C\c1ccc(Cl)c(Cl)c1 [j, [(Z)-2-Cyano-3-(3,4-dichlorophenyl)-acryloyl]-carbamic acid ethyl ester] the Ki (PDZ domain of PICK1) was 40 µM, the “pull-down of PICK1 by GST-DAT (in words)” value [1] was “inhibition; also recorded: inhibited” and the “FRET between eYFP-PICK1 and eCFP-GluR2 C29 (in words)” value (PICK1 GluR2 interaction; compared to vehicle (1% DMSO)) was “specifically reduced; also recorded: significantly reduced”. For the same compound, the “FRET between eYFP-PICK1 and eCFP-GluR2 C29+A (in words)” value (PICK1 GluR2 interaction; specificity control construct) was “no effect”.

In the case of “β2 AR peptide: peptide corresponding to the 13 C-terminal residues of the β2 AR, type I PDZ binding sequence -DSLL; specificity control (SQGRNCSTNDSLL; UniProt P07550 401-413, looked up, fragment) [reference compound]”, the “potency in displacing the fluorescently tagged tracer (in words)” value (PDZ domain of PICK1) is reported as “much less potent” and the “apparent affinity (in words)” value (PICK1; fluorescently labeled peptide) is reported as “very low apparent affinity”.

With O=C1C(=Cc2cc(Br)ccc2OCc2ccccc2)C(=O)c2ccccc21 [v, 2-(2-Benzyloxy-5-bromo-benzylidene)-indan-1,3-dione] the Ki (PDZ domain of PICK1) was 7.7 µM.

Work on CC(C)(C)c1ccc(O)c(/N=C/c2cc(N=Nc3ccc(Cl)cc3)ccc2O)c1 [q, 4-tert-Butyl-2-{[1-[5-(4-chloro-phenylazo)-2-hydroxy-phenyl]-meth-(E)-ylidene]-amino}-phenol] yielded a Ki (PDZ domain of PICK1) of 19.1 µM.

CCOC(=O)c1ccc(-c2ccc(/C=C3/C(=O)NN(c4ccc(C)c(Cl)c4)C3=O)o2)cc1 [t, 4-{5-[1-(3-Chloro-4-methyl-phenyl)-3,5-dioxo-pyrazolidin-(4Z)-ylidenemethyl]-furan-2-yl}-benzoic acid ethyl ester] gave a Ki (PDZ domain of PICK1) of 13.7 µM.

For O=C1C(=O)c2cc([N+](=O)[O-])ccc2-c2ccccc21 [w, 2-Nitro-phenanthrene-9,10-dione], the Ki (PDZ domain of PICK1) was 4.4 µM.

In the case of CC(C)C[C@H](NC(=O)[C@H](Cc1c[nH]c2ccccc12)NC(=O)[C@H](Cc1c[nH]cn1)NC(=O)[C@H](CCCNC(=N)N)NC(=O)[C@H](CC(C)C)NC(=O)[C@@H](NC(=O)[C@H](Cc1ccccc1)NC(=O)[C@H](CCC(N)=O)NC(=O)[C@H](CCCNC(=N)N)NC(=O)[C@@H](NC(=O)[C@@H](N)CCC(=O)O)C(C)C)[C@@H](C)O)C(=O)N[C@@H](CCCCN)C(=O)N[C@H](C(=O)O)C(C)C [DAT peptide, reference compound] (H-EVRQFTLRHWLKV-OH; N-terminus and C-terminus assumed), the “potency in displacing the fluorescently tagged tracer (in words)” value (PDZ domain of PICK1) is reported as “more than one order of magnitude more potent”.
